What was measured:
colitis ulcerosa = conditions: cited from earlier work
colon mucosa = conditions: topic application, rat models, colitis induced by acetic acid and trinitro-benzosulfonic acid; cited from earlier work
[1] = system: HepG2-cells (hepatocytes); experiment: Selective enrichment of fluorescence-marked conjugate in HepG2-cells, fluorescence microscopy; format: cell-based; conditions: 50 uM, 37° C., 10 min., washed, treated with 5% beef-serum albumin
Method: In order to control the selective enrichment of the LysoPE-DOCA-compound HepG2-cells (hepatocytes) were incubated at 37° C. with a fluorescence-marked ursodeoxycholate-1-palmitoyl, 2-NBD-PE-conjugate (at 50 uM) for 10 min., washed, and subsequently treated with 5% beef-serum albumin in order to remove the conjugate from the exterior plasma membrane of the cells. Subsequently the cells are microscopic controlled in phase contrast and in fluorescent light.

[2] = oral, retarding packaged form, compared to placebo control group

phosphatidyl choline
inflammatory activity of colitis ulcerosa (colitis ulcerosa; oral, retarding packaged form with release in the lower small intestine and the colon): significantly suppresses the inflammatory activity | improvement of the clinical activity on average (colitis ulcerosa; [2]): 70% | patients treated in whom the improvement of clinical activity was achieved (colitis ulcerosa; [2]): 90% | patients reaching clinical remission (colitis ulcerosa; within three months): more than half of the patients reached even clinical remission | protection of colon mucosa from induced colitis (colon mucosa): protecting colon mucosa from colitis

ursodeoxycholate-1-palmitoyl, 2-NBD-PE-conjugate
enrichment in the cells under fluorescent-microscopic observation [1]: intense yellow-green coloration in the cytoplasm but not in the core of the cell

— US8883426B2, “Use of therapeutically effective lipids and method for producing organ-/tissue-specific therapeutically effective lipids” (PAT GmbH, priority 2005, dated 2014)
